This is an account of results in patent publication US9988371B2, “Benzimidazole analogues and related methods” (The Arizona Board of Regents, on Behalf of the University …, priority 2014, dated 2018).

One may read the IC50 as the concentration that gives 50% inhibition. A high value points to weaker potency in that assay.

Test [1] has as its system TT cells (MTC, RET/C634W). Description: Growth curve proliferation assay, TT cells. The test is classed as cell-based. The note with it: Homo sapiens, last day of growth curves. How it is done:
FIG. 5: Effects exerted by indicated concentrations of Pz-1 or vehicle (NT: not treated) on proliferation of TT (human MTC cell line expressing RET/C634W), Lc-2/ad (human NSCLC expressing CCDC6-RET) and Nthy-ori-3-1 (thyroid non-transformed) cell lines. Data are the mean±SD (Standard Deviation) of one experiment performed in triplicate. Bottom, right) Growth inhibition IC50 of Pz-1 for the different cell lines: 95% CI (confidence intervals) are indicated in brackets. Cells were seeded in triplicate in 60-mm dishes and kept in 5% (Nthy-ori-3-1) or 10% (TT and Lc-2/ad) fetal calf serum. The day after plating, different concentrations of Pz-1 or vehicle were added to the medium and changed every 2-3 days. Cells were counted every 2-3 days and cell numbers were reported±SD (Standard Deviation). IC50 doses (with Confidence Intervals) were calculated through a curve fitting analysis from the last day of growth curves using the PRIZM software program (Graphpad Software Inc).
Nthy-ory-3-1 and TTcells were seeded in 60-mm dishes. […] Cells were counted every 2-3 days. […] Parental and RET/PTC-expressing Ba/F3 were kept in 10% fetal calf serum in 6-multi wells and counted every day for 4 consecutive days, changing media every 2 days. […] IC50 doses were calculated through a curve fitting analysis from the last day of growth curves using the PRISM software program (Graphpad Software Inc). […]

Test [2] relates to Ba/F3 cells transfected by RET/PTC3 (NCOA4-RET). The test is described as follows: IL-3-independent proliferation of Ba/F3 RET/PTC3 cells. The test is classed as cell-based, murine. The conditions noted are these: Mus musculus, BaF3. As for the experimental part:
FIG. 6: Activity of Pz-1 on NCOA4-RET oncogene-driven IL-3-independent proliferation of murine Ba/F3 cells. […] Ba/F3 and Ba/F3 NCOA4-RET cells were incubated with vehicle (NT) or the indicated concentration of Pz-1 in complete medium and counted at different time points. Data are the mean±SD of one experiment performed in triplicate. Murine interleukin-3 (IL-3) dependent pro-B Ba/F3 cells were from ATCC. Ba/F3 cells stably expressing NCOA4-RET (RET/PTC3) protein were generated by transfecting long isoform (RET-51) of NCOA4-RET by electroporation. Parental and Ba/F3-NCOA4-RET cells were cultured in RPMI 1640 with 10% FBS; parental cells required also 10 ng/ml IL-3. IC50 doses (with Confidence Intervals) are indicated.
Nthy-ory-3-1 and TTcells were seeded in 60-mm dishes. Cells were kept in 2% (Nthy-ori-3-1) or 10% (TT) fetal calf serum. One day after plating, different concentrations of Pz-1 or vehicle were added to the medium and changed every 2-3 days. Cells were counted every 2-3 days. […] Parental and RET/PTC-expressing Ba/F3 were kept in 10% fetal calf serum in 6-multi wells and counted every day for 4 consecutive days, changing media every 2 days. […] IC50 doses were calculated through a curve fitting analysis from the last day of growth curves using the PRISM software program (Graphpad Software Inc). […]

For the next test, the target named is T1, VEGFR2 (Mus musculus, UniProt P35918).
T1 construct: from tissue; host or cells: subcutaneous tumours (NIH3T3 RET/C634Y or NIH3T3 HRAS/G12V) in BALB/c nu/nu mice
T1 sequence (P35918 20-1345): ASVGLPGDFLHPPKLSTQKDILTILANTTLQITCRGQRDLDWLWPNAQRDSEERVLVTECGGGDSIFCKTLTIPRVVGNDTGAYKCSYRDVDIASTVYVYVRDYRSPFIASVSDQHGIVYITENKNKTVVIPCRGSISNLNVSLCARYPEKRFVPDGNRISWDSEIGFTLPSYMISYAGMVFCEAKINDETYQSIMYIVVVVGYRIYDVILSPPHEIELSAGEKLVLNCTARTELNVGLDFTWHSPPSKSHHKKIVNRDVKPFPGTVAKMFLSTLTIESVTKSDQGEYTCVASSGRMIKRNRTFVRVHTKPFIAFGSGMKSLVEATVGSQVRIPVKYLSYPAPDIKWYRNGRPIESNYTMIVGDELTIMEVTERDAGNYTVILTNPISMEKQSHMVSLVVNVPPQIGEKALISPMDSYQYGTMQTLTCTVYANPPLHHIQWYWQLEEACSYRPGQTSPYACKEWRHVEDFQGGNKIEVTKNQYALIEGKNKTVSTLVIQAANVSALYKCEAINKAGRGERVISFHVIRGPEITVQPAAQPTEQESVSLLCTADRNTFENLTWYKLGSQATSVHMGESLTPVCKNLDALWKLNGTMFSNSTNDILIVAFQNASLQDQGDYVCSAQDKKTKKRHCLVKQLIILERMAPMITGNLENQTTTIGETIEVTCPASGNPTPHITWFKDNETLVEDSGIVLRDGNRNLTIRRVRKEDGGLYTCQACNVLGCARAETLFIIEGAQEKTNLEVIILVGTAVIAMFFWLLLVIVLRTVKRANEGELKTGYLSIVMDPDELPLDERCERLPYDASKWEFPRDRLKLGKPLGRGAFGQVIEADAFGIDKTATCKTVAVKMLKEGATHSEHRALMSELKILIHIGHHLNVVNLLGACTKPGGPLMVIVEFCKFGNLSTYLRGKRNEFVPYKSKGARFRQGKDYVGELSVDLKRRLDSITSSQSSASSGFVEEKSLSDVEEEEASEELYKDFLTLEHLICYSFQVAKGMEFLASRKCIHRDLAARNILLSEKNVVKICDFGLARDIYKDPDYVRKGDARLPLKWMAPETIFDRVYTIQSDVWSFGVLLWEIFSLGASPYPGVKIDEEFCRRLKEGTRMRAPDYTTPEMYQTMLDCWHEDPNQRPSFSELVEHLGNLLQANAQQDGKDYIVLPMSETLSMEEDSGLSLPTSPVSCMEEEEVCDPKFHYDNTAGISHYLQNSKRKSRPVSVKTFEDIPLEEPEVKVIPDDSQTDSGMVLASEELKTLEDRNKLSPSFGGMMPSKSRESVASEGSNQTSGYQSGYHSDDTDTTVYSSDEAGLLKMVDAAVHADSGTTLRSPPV
Description: In vivo target inhibition, pVEGFR2 in HRAS/G12V-induced tumors. Also noted: species or system nude mice. The note with it: 48 hr, 1.0 or 3.0 mg/kg daily. How it is done:
FIG. 9: Photographs of blots showing effects of Pz-1 on cellular phosphorylation events in tumors induced in nude mice (from FIG. 8) by injection of NIH3T3 fibroblasts transformed by RET/C634Y or HRAS/G12V. […] Some of the vehicle-treated tumors, at the end of the tumor growth experiment described in FIG. 8, were treated for 48 hr with different doses of Pz-1 (TR) or left untreated (NT). At the end of the treatment, 50 μg of tumor protein lysates were subjected to immunoblotting with anti-phospho-Y1062 (αp1062) and anti-phospho-905 (αpY905) RET antibodies, anti-phospho-MAPK (αpMAPK, T302/Y304), anti-phospho-SHC (αpSHC, Y317), anti-phospho-p70S6K (αpp70S6K, T389), anti-phospho-S6RP (αpS6RP, S235/S236), and anti-phospho-VEGFR2 (αpVEGFR2 pY1175) antibodies. The blots were normalized using anti-RET (αRET), anti-SHC (αSHC), anti-MAPK (αMAPK), anti-p70S6K (αp70S6K), anti-S6RP (αS6RP) or anti-VEGFR2 (αVEGFR2) antibodies.
Some of the vehicle-treated tumors, at the end of the tumor growth experiment reported in FIG. 8, were treated for 48 hr with different doses of Pz-1 (1.0 or 3.0 mg/kg daily) or left untreated. […]

Turning to `Cn1cc(-c2ccc3c(c2)ncn3-c2ccc(CC(=O)Nc3cc(C(C)(C)C)on3)cc2)cn1` [Pz-1, N-(5-(tert-butyl)isoxazol-3-yl)-2-(4-(5-(1-methyl-1H-pyrazol-4-yl)-1H-benzo[d]imidazol-1-yl)phenyl)acetamide], the IC50 in test [1] worked out at 1.86 nM; in test [2] it was 0.34 nM. Also, the pVEGFR2 in tumors entry on VEGFR2 is “inhibited”.
